1 compound from patent US20250019350A1, “SYNTHESIS OF THE PROSTATE SPECIFIC MEMBRANE ANTIGEN (PSMA) RADIOLABELED INHIBITOR [18F]DCFPYL” (Progenics Pharmaceuticals, Inc, priority 2023, published 2025) can be followed below.

The nature of the series: HPLC/UV (264 nm) chemical impurity assay; ascorbic acid related impurity. Conditions: development lot at 163.0 mCi/mL with ascorbic acid. It is filed as physicochemical. Here is the method: Analytical HPLC method was used. The method employs UV detection at 264 nm for chemical impurities, and an Eckert & Ziegler model B-FC-1000 gamma detector for radiochemical assays.
Since the peak has not been previously observed in preparations in the absence of ascorbic acid it is likely ascorbic acid related and was further investigated. A decayed sample from the lot produced was analyzed further and confirmed the presence of the peak, FIG. 35. […] The sample was assayed for chemical impurities at T=0, 4, 10 and 24 hours when held inverted at ambient conditions. […] The impurity only formed with radioactivity exposure but not when stored in light or dark at ambient conditions (see FIG. 37).

SMILES strings stand for the structures.

For `O=C(O)CC[C@H](NC(=O)N[C@@H](CCCCNC(=O)c1ccc([18F])nc1)C(=O)O)C(=O)O` [Lot 18F-DCFPyL, 2-(3-{1-carboxy-5-[(6-[18F]fluoro-pyridine-3-carbonyl)-amino]-pentyl}ureido)-pentanedioic acid], the “chemical impurity at retention time approximately 4.6 minutes on the UV trace” value is 0.9 µg/mL.
